Consider 31 compounds from patent US8765773B2, “Substituted hydroxamic acids and uses thereof” (Millennium Pharmaceuticals, Inc., priority 2010, dated 2014).

One may read the inhibition as the relative decrease from the control value, in per cent.

For one assay, the target named is T1, purified human HDAC6 (Homo sapiens, UniProt Q9UBN7).
T1 construct: purchased BPS Bioscience 5006
T1 sequence (Q9UBN7 1-1215): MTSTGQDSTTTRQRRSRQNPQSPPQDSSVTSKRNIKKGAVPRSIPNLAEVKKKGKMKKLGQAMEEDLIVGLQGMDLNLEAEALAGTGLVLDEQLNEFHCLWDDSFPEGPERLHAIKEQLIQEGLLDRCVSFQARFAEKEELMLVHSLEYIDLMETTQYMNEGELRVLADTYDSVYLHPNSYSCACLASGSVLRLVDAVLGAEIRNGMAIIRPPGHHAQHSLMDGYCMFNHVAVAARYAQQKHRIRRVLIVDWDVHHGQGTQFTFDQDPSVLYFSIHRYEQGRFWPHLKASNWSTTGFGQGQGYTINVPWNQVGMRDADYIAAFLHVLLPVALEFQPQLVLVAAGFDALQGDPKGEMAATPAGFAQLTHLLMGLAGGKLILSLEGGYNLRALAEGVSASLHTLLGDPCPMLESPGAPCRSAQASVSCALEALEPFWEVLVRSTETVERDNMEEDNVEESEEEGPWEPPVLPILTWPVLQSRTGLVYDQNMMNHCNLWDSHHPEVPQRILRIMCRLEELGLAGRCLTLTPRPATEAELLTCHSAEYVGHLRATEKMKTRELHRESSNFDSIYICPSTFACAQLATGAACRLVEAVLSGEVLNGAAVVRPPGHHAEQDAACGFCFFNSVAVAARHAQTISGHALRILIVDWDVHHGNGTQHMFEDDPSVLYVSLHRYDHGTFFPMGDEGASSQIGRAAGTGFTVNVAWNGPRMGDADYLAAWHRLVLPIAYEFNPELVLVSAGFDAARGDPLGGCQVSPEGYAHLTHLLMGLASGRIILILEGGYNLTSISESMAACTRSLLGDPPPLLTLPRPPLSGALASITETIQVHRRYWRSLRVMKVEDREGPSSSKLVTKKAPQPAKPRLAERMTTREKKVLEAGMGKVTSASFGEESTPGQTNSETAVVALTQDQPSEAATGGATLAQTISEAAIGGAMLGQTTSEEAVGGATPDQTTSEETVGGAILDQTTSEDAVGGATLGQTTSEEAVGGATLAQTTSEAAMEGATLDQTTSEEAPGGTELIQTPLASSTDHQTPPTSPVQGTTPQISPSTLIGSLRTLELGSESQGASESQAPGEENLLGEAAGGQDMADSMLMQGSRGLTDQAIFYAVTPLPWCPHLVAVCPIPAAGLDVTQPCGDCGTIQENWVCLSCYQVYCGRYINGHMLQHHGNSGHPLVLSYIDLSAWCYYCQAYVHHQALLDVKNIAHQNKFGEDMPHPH
In words: HDAC6 Enzyme Assay. Format: biochemical. The following applies: compound concentration 0.37 μM, read-out: Percent Inhibition. An outline of the steps: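 Purified human HDAC6 incubated 1 h at 30° C with Ac-Arg-Gly-Lys(Ac)-AMC peptide plus compound or DMSO; stopped with trichostatin A. Deacetylated product trypsin-digested, released AMC read by fluorescence (Ex 340/Em 460 nm). Percent inhibition at one concentration or IC50 from curves relative to DMSO controls.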
`O=C(NO)c1ccc2ncn(Cc3cccc(S(=O)(=O)c4ccccc4)c3)c(=O)c2c1` [Compound I-142, N-hydroxy-4-oxo-3-[3-(phenylsulfonyl)benzyl]-3,4-dihydroquinazoline-6-carboxamide]: the inhibition at 0.37 µM worked out at 97.4%. The same measure, in the same setting: for `COc1ccc(-c2cccc(Cn3cnc4ccc(C(=O)NO)cc4c3=O)c2)cn1` [Compound I-143, N-hydroxy-3-[3-(6-methoxypyridin-3-yl)benzyl]-4-oxo-3,4-dihydroquinazoline-6-carboxamide] the value was 96.6%; for `O=C(NO)c1ccc2ccn(-c3ccccc3)c(=O)c2c1` [Compound I-154, N-hydroxy-1-oxo-2-phenyl-1,2-dihydroisoquinoline-7-carboxamide], 93.9%; for `Cn1c(-c2nc3cc(C(=O)NO)ccc3c(=O)n2Cc2ccc(C(F)(F)F)cc2)cc2ccccc21` [Compound I-166, N-hydroxy-2-(1-methyl-1H-indol-2-yl)-4-oxo-3-[4-(trifluoromethyl)benzyl]-3,4-dihydroquinazoline-7-carboxamide], 78.8%.

The assay is the same for the next values; noted with them: compound concentration 0.412 μM, read-out: Percent Inhibition.
Take `COc1ccc(CCCn2ccc3ccc(C(=O)NO)cc3c2=O)cc1` [Compound I-140, N-hydroxy-2-[3-(4-methoxyphenyl)propyl]-1-oxo-1,2-dihydroisoquinoline-7-carboxamide]: the inhibition at 0.412 µM turned out to be 96.5%. Same read-out and setting: the value for `CC(C)C(Cn1ccc2ccc(C(=O)NO)cc2c1=O)c1ccccc1` (stereo not shown) [Compound I-141, N-hydroxy-2-(3-methyl-2-phenylbutyl)-1-oxo-1,2-dihydroisoquinoline-7-carboxamide] was 90.5%. On the same count and under the same terms, for `O=C(NO)c1ccc2c(=O)[nH]c(COc3ccccc3Cl)nc2c1` [Compound I-144, 2-[(2-chlorophenoxy)methyl]-N-hydroxy-4-oxo-3,4-dihydroquinazoline-7-carboxamide] the value was 81.2%; for `O=C(NO)c1ccc2c(=O)[nH]c(COc3cc(Cl)cc(Cl)c3)nc2c1` [Compound I-145, 2-[(3,5-dichlorophenoxy)methyl]-N-hydroxy-4-oxo-3,4-dihydroquinazoline-7-carboxamide], 76.7%; for `O=C(NO)c1ccc2c(=O)[nH]c(CNC3CCNCC3)nc2c1` [Compound I-146, N-hydroxy-4-oxo-2-[(piperidin-4-ylamino)methyl]-3,4-dihydroquinazoline-7-carboxamide], 65.7%. The same measure, in the same setting: for `O=C(NO)c1ccc2ncn(Cc3ccc(C(F)(F)F)cc3C(F)(F)F)c(=O)c2c1` [Compound I-147, 3-[2,4-bis(trifluoromethyl)benzyl]-N-hydroxy-4-oxo-3,4-dihydroquinazoline-6-carboxamide] the value was 93.2%; for `Cc1cc(Cn2ccc3ccc(C(=O)NO)cc3c2=O)no1` [Compound I-148, N-hydroxy-2-[(5-methylisoxazol-3-yl)methyl]-1-oxo-1,2-dihydroisoquinoline-7-carboxamide], 91.2%. Turning to `Cc1ccccc1OCCn1ccc2ccc(C(=O)NO)cc2c1=O` [Compound I-149, N-hydroxy-2-[2-(2-methylphenoxy)ethyl]-1-oxo-1,2-dihydroisoquinoline-7-carboxamide], the inhibition at 0.412 µM turned out to be 97.3%.

As for `O=C(NO)c1ccc2c(=O)n(Cc3ccc(C(F)(F)F)cc3)c(C3CCCCC3)nc2c1` [Compound I-150, 2-cyclohexyl-N-hydroxy-4-oxo-3-[4-(trifluoromethyl)benzyl]-3,4-dihydroquinazoline-7-carboxamide], the inhibition at 0.412 µM came to 30.1%. Same read-out and setting: the value for `COc1ccc2cc(OCCCn3ccc4ccc(C(=O)NO)cc4c3=O)ccc2c1` [Compound I-151, N-hydroxy-2-{3-[(6-methoxy-2-naphthyl)oxy]propyl}-1-oxo-1,2-dihydroisoquinoline-7-carboxamide] was 96.2%; that for `O=C(NO)c1ccc2ccn(CCc3c[nH]c4ccccc34)c(=O)c2c1` [Compound I-152, N-hydroxy-2-[2-(1H-indol-3-yl)ethyl]-1-oxo-1,2-dihydroisoquinoline-7-carboxamide] was 96%; that for `O=C(NO)c1ccc2ccn(CCCC3CCCCC3)c(=O)c2c1` [Compound I-153, 2-(3-cyclohexylpropyl)-N-hydroxy-1-oxo-1,2-dihydroisoquinoline-7-carboxamide] was 89.9%. On the same count and under the same terms, the value for `O=C(NO)c1ccc2c(=O)[nH]c(=O)[nH]c2c1` [Compound I-155, N-hydroxy-2,4-dioxo-1,2,3,4-tetrahydroquinazoline-7-carboxamide] was 19.6%; that for `Cn1cnc2ccc(C(=O)NO)cc2c1=O` [Compound I-156, N-hydroxy-3-methyl-4-oxo-3,4-dihydroquinazoline-6-carboxamide] was 55.7%.

For the compound `Cc1ccccc1Cn1ccc2ccc(C(=O)NO)cc2c1=O` [Compound I-157, N-hydroxy-2-(2-methylbenzyl)-1-oxo-1,2-dihydroisoquinoline-7-carboxamide], the inhibition at 0.412 µM worked out at 94.8%.

`O=C(NO)c1ccc2ccn(CCO)c(=O)c2c1` [Compound I-158, N-hydroxy-2-(2-hydroxyethyl)-1-oxo-1,2-dihydroisoquinoline-7-carboxamide]: the inhibition at 0.412 µM turned out to be 72.5%.

For the compound `CCN(CC)c1cccc(OCCn2ccc3ccc(C(=O)NO)cc3c2=O)c1` [Compound I-159, 2-{2-[3-(diethylamino)phenoxy]ethyl}-N-hydroxy-1-oxo-1,2-dihydroisoquinoline-7-carboxamide], the inhibition at 0.412 µM was 91.3%. The same measure, in the same setting: the value for `O=C(NO)c1ccc2ccn(CCCOc3ccccc3-c3csnn3)c(=O)c2c1` [Compound I-160, N-hydroxy-1-oxo-2-{3-[2-(1,2,3-thiadiazol-4-yl)phenoxy]propyl}-1,2-dihydroisoquinoline-7-carboxamide] was 87.4%.

`O=C(NO)c1ccc2ccn(CCOc3ccc(C45CC6CC(CC(C6)C4)C5)cc3)c(=O)c2c1` [Compound I-161, 2-(2-{4-[1-adamantyl]phenoxy}ethyl)-N-hydroxy-1-oxo-1,2-dihydroisoquinoline-7-carboxamide]: the inhibition at 0.412 µM was determined as 67%. The same measure, in the same setting: the value for `O=C(NO)c1ccc2ccn(Cc3ccccc3Cl)c(=O)c2c1` [Compound I-162, 2-(2-chlorobenzyl)-N-hydroxy-1-oxo-1,2-dihydroisoquinoline-7-carboxamide] was 94.2%. As to `O=C(NO)c1ccc2ccn(CCCOCc3ccccc3)c(=O)c2c1` [Compound I-163, 2-[3-(benzyloxy)propyl]-N-hydroxy-1-oxo-1,2-dihydroisoquinoline-7-carboxamide], the inhibition at 0.412 µM was determined as 92.5%. Same read-out and setting: the value for `O=C(NO)c1ccc2ncn(Cc3csc4ccc(Cl)cc34)c(=O)c2c1` [Compound I-164, 3-[(5-chloro-1-benzothien-3-yl)methyl]-N-hydroxy-4-oxo-3,4-dihydroquinazoline-6-carboxamide] was 94.1%; that for `Cn1c(NCc2ccc(Cl)cc2)nc2ccc(C(=O)NO)cc2c1=O` [Compound I-165, 2-[(4-chlorobenzyl)amino]-N-hydroxy-3-methyl-4-oxo-3,4-dihydroquinazoline-6-carboxamide] was 59.5%; that for `CS(=O)(=O)c1ccccc1OCCn1ccc2ccc(C(=O)NO)cc2c1=O` [Compound I-167, N-hydroxy-2-{2-[2-(methylsulfonyl)phenoxy]ethyl}-1-oxo-1,2-dihydroisoquinoline-7-carboxamide] was 96.1%. Same read-out and setting: for `O=C(NO)c1ccc2c(=O)[nH]c(COc3ccccc3C(F)(F)F)nc2c1` [Compound I-168, N-hydroxy-4-oxo-2-{[2-(trifluoromethyl)phenoxy]methyl}-3,4-dihydroquinazoline-7-carboxamide] the value was 72.8%; for `Cn1c(=O)[nH]c2ccc(C(=O)NO)cc2c1=O` [Compound I-169, N-hydroxy-3-methyl-2,4-dioxo-1,2,3,4-tetrahydroquinazoline-6-carboxamide], 62.8%; for `O=C(NO)c1ccc2ccn(CCCN3CCCCC3)c(=O)c2c1` [Compound I-170, N-hydroxy-1-oxo-2-(3-piperidin-1-ylpropyl)-1,2-dihydroisoquinoline-7-carboxamide], 67.1%.
